US8853237B2, “Naphthyridinone analogs as mGluR5 positive allosteric modulators” (Vanderbilt University, priority 2010, dated 2014)

How the values were obtained:
human mGluR5a receptor = human mGluR5a receptor (Homo sapiens, UniProt P41594); assay: Cell-based functional assay: Ca2+ mobilization (FDSS), potentiation of glutamate EC20 response; conditions: for EC50: HEK cells (H10H or H12H) transfected with human mGluR5, in presence of EC20 glutamate, >10 uM estimated where no plateau but >20% increase; for Emax: maximum average response at a single concentration, as percent of maximal glutamate response
Experimental: Table 1 below lists specific compounds as well as experimentally determined mGluR5 activity determined in a cell-based assay. The mGluR5 activity was determined using the metabotropic glutamate receptor activity assays in human embryonic kidney cells as described herein, wherein the human embryonic kidney cells were transfected with human mGluR5. The compounds in Table 1 were synthesized with methods identical or analogous to those shown herein. The column labeled “Rxn” and the data thereunder indicated in Table 1 refers to the Reaction Scheme number described above. The requisite starting materials were commercially available, described in the literature, or readily synthesized by one skilled in the art of organic synthesis.
Human mGluR5a cDNA in pCMV6-XL6 mammalian expression plasmid was purchased from OriGene Technologies, Inc. (catalogue number SC326357) and subcloned into pcDNA3.1(−). Human embryonic kidney (HEK)293A cells were then transfected with human mGluR5a pcDNA3.1(−) using LipofectAmine2000 (Invitrogen) and monoclones were selected and tested for functional response using a Ca^2+ mobilization assay. Monoclones were named for the species (“H” for human) plus the location on the plate (e.g. “10H”).
HEK cells transfected with the human mGluR5a receptor (H10H or H12H cell line) were plated at 15,000 cells/well in clear-bottomed poly-D-lysine-coated assay plates (BD Falcon) in glutamate-glutamine-free growth medium and incubated overnight at 37° C. and 5% CO2. Cell-lines used were either the H10H or H12H cell-lines expressing the human mGluR5 receptor. The following day, the growth medium was removed and the cells were washed with assay buffer containing 1× Hank's balanced salt solution (Invitrogen, Carlsbad, Calif.), 20 mM HEPES, 2.5 mM probenecid, pH 7.4 and left with 20 μL of this reagent. Following this step, the cells were loaded with calcium indicator dye, fluo-4 AM, to a final concentration of 2 μM and incubated for 40-45 min at 37° C. The dye solution was removed and replaced with assay buffer. Cell plates were held for 10-15 min at room temperature and were then loaded into the Functional Drug Screening System 6000 (FDSS 6000, Hamamatsu, Japan).
After establishment of a fluorescence baseline for about 3 seconds, the compounds of the present invention were added to the cells, and the response in cells was measured. 2.3 minutes later an EC20 concentration of the mGluR5 receptor agonist glutamate was added to the cells, and the response of the cells was measured for about 1.7 minutes. All test compounds were dissolved and diluted to a concentration of 10 mM in 100% DMSO and then serially diluted into assay buffer for a 2× stock solution in 0.6% DMSO; stock compounds were then added to the assay for a final DMSO concentration of 0.3% after the first addition to the assay well. Calcium fluorescence measures were recorded as fold over basal fluorescence; raw data was then normalized to the maximal response to glutamate. Potentiation of the agonist response of the mGluR5 receptor in the present invention was observed as an increase in response to submaximal concentrations of glutamate in the presence of compound compared to the response to glutamate in the absence of compound.
The concentration-response curves of compounds of the present invention, obtained in the presence of EC20 of mGluR5 receptor agonist glutamate to determine positive allosteric modulation, were generated using Microsoft Excel with IDBS XLfit add-ins. The raw data file containing all time points was used as the data source in the analysis template. This was saved by the FDSS as a tab-delimited text file. Data were normalized using a static ratio function (F/F0) for each measurement of the total 350 values per well divided by each well's initial value. Data was then reduced as to peak amplitudes (Max—Initial Min) using a time range that starts approximately 1 second after the glutamate EC20 addition and continues for approximately 40 seconds. […]

[1] = system: amphetamine-induced hyperlocomotion; assay: Reversal of amphetamine-induced hyperlocomotion; format: in vivo, male Sprague-Dawley rats; conditions: 10 mg/kg, vehicle 20% HP-beta-CD; amphetamine 1 mg/kg sc; rat
Experimental: Locomotor activity was assessed as mean distance traveled (cm) in standard 16×16 photocell testing chambers measuring 43.2 cm (Length)×43.2 cm (Width)×30.5 cm (Height) (Med Associates, St. Albans, Vt.). Animals were habituated to individual activity chambers for at least 30 min prior to drug administration. Following administration of drug or vehicle, activity was recorded for a […] time period. Data was expressed as the mean (±SEM) distance traveled recorded in 5 min intervals over the test period. The data were analyzed using repeated measures analysis of variance (ANOVA) followed by post-hoc testing using Dunnett's test, when appropriate. A difference was considered significant when p≦0.05. Amphetamine sulfate was obtained from Sigma (Cat#A5880-1G; St. Louis, Mo.) and 10 mg was dissolved in 10 ml of water. Test compound, 2-((3-fluorobenzyl)oxy)-7,8-dihydro-1,6-naphthyridin-5(6H)-one, was formulated in a volume of 10 ml with an amount of drug appropriate to the dosage indicated. […] At 60 min, all rats were injected subcutaneously with 1 mg/kg amphetamine or vehicle and then monitored for an additional 60 min. Animals are monitored for a total of 120 minutes. Data are expressed as changes in ambulation defined as total number of beam breaks per 5 min periods. The data for the dose-response studies were analyzed by a between-group analysis of variance. […]

human mGluR5a receptor, sequence (P41594 21-1180 isoform P41594-2 limits assumed): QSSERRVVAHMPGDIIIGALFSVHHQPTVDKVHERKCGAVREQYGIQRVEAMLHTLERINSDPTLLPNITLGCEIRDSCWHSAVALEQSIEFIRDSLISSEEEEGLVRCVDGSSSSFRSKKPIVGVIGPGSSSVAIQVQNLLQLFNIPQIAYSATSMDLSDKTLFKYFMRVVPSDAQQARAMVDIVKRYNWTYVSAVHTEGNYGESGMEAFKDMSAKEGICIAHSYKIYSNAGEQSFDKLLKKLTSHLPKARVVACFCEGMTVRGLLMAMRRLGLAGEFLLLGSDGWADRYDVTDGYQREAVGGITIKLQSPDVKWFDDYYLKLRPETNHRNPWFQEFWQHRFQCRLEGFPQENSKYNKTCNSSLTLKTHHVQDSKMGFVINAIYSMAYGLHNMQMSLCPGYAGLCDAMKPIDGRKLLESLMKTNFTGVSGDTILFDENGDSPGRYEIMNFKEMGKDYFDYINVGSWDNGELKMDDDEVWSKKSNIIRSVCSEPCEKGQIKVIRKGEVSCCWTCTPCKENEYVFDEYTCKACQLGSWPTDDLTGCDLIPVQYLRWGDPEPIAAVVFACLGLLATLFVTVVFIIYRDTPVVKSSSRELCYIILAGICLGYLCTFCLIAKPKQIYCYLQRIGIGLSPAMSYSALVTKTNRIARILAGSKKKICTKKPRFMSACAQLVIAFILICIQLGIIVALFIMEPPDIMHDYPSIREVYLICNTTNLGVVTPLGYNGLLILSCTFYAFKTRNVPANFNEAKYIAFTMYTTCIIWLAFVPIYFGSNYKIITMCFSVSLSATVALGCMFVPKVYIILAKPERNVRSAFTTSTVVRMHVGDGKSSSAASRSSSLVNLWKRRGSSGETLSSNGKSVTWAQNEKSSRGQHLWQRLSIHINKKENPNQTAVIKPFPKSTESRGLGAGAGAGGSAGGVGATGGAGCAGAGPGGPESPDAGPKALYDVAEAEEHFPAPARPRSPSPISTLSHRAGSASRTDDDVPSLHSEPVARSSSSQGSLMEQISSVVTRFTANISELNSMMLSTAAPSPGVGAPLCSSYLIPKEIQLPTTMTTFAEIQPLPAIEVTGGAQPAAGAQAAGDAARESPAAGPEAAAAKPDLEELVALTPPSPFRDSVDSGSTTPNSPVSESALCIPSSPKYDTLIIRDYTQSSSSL

Row | Structure (SMILES) | EC50 (human mGluR5a receptor) | Emax (human mGluR5a receptor) | apparent reversal of amphetamine-induced hyperlocomotion [1]
1 | COc1ccc(CN2CCc3ncc(COc4cccc(F)c4)cc3C2=O)cc1 [compound 12] | 1.6 µM | 64% | –
2 | O=C1c2ccc(OCc3cccc(F)c3)nc2CCN1c1cccc(F)c1 [compound 4] | 0.98 µM | 41% | –
3 | COc1ccc(CN2CCc3nc(OCc4cccc(F)c4)ccc3C2=O)cc1C(F)(F)F [compound 3] | > 10 µM | 40% | –
4 | COc1ccc(CN2CCc3ncc(OCc4ccccc4)cc3C2=O)cc1 [compound 14] | > 10 µM | 46% | –
5 | O=C1c2ccc(OCc3cccc(F)c3)nc2CCN1c1ccc(F)cn1 [compound 5] | > 10 µM | 40% | –
6 | O=C1c2ccc(OCc3ccccc3)nc2CCN1c1ccc(F)cc1 [2-(benzyloxy)-6-(4-fluorophenyl)-7,8-dihydro-1,6-naphthyridin-5(6H)-one] | – | – | 35%
7 | O=C1c2ccc(COc3cccc(F)c3)nc2CCN1c1ccc(F)cc1 [compound 6] | 0.2 µM | 72% | –
8 | O=C1c2ccc(OCc3ccccc3)nc2CCN1c1ccc(F)cc1 [compound 23] | 0.125 µM | 66% | –
9 | O=C1c2ccc(OCc3ccccc3)nc2CCN1CC1CCC1 [compound 24] | 0.441 µM | 49% | –
10 | O=C1c2ccc(COc3cccc(F)c3)nc2CCN1c1ccc(F)cn1 [compound 7] | 0.36 µM | 66% | –
11 | O=C1c2ccc(OCc3cccc(F)c3)nc2CCN1Cc1cccc(Cl)c1F [compound 2] | 4.2 µM | 39% | –
12 | O=C1c2ccc(OCc3cccc(F)c3)nc2CCN1CC1CCC1 [compound 11] | 0.63 µM | 39% | –

The next lines start with results.

Row | EC50 (human mGluR5a receptor) | Emax (human mGluR5a receptor) | Structure (SMILES) | apparent reversal of amphetamine-induced hyperlocomotion [1]
13 | 0.73 µM | 76% | O=C1c2ncc(COc3ccccc3)cc2CCN1c1ccc(F)cc1 [compound 8] | –
14 | > 10 µM | 67% | O=C1c2cc(OCc3ccccc3)cnc2CCN1c1ccc(F)cc1F [compound 18] | –
15 | > 10 µM | 43% | O=C1NCCc2ncc(OCc3ccccc3)cc21 [compound 15] | –
16 | > 30 µM | 21% | CN1CCc2cc(COc3ccccc3)cnc2C1=O [compound 26] | –
17 | > 30 µM | – | Cc1cccc(N2CCc3ncc(OCc4ccccc4)cc3C2=O)n1 [compound 20] | –
18 | > 30 µM | – | O=C1c2cc(OCc3ccccc3)cnc2CCN1c1ccccn1 [compound 17] | –
19 | 0.19 µM | 55% | O=C1NCCc2nc(OCc3cccc(Cl)c3)ccc21 [compound 9] | –
20 | 0.37 µM | 71% | O=C1NCCc2nc(OCc3cccc(F)c3)ccc21 [compound 1] | –
21 | > 10 µM | 44% | CN1CCc2ncc(COc3cccc(F)c3)cc2C1=O [compound 13] | –
22 | > 10 µM | 34% | O=C1c2cc(OCc3ccccc3)cnc2CCN1c1ccc(F)cc1 [compound 21] | –
23 | > 30 µM | 43% | O=C1NCCc2cc(COc3ccccc3)cnc21 [compound 25] | –
24 | > 30 µM | 15% | C[C@H](N1CCc2cc(COc3ccccc3)cnc2C1=O)C(C)(C)C [compound 27] | –
25 | 0.7 µM | 79% | O=C1NCCc2nc(OCc3ccccc3F)ccc21 [compound 10] | –
26 | > 30 µM | – | O=C1c2cc(OCc3ccccc3)cnc2CCN1c1cccnc1 [compound 19] | –
27 | 2.76 µM | 52% | O=C1c2cc(OCc3ccccc3)cnc2CCN1CC1CCC1 [compound 22] | –
